Reference: paper PMC10482825 (Scientific Reports, 2023)
In brackets after ≈: the same amount, converted by molar mass. Where a SMILES comes first, the peptide text is derived from it.

What was measured:
B. subtilis [1] = format: cell-based, Bacillus subtilis (ATCC, 11774); conditions: micro-broth dilution, 3 h peptide treatment then MHB 18 h, 37 °C, OD 600 nm
Description: (§1) The microbial strains used in this study were Bacillus subtilis (ATCC, 11774), Candida albicans (TIMM, 1768), Enterococcus faecalis (ATCC, 33186), Escherichia coli (ATCC, 11775), Klebsiella pneumoniae (ATCC, 13883), Methicillin-resistant Staphylococcus aureus (ATCC, BAA-41), Pseudomonas aeruginosa (ATCC, 10145), Salmonella enterica (ATCC, 14028), Serratia marcescens (ATCC, 13880), Staphylococcus aureus (ATCC, 25923) and Vibrio parahaemolyticus (ATCC, 17802). All microbial strains were cultivated overnight at 37 °C and 200 rpm, then subcultured and incubated for 3 h under the same incubation conditions to obtain the mid-logarithmic growth phase. The cultivated cells were washed twice with 10 mM Tris–HCl containing 5 mM D-glucose at pH 7.4 and suspended in the same buffer to be used in different assays, as previously described.
(§2) As a conclusive quantitative assessment, broth microtiter assay was used to determine the MIC values of each cryptide against B. subtilis, MRSA, S. enterica, P. aeruginosa, V. parahaemolyticus and C. albicans by following the guidelines of the Clinical and Laboratory Standards Institute (CLSI)[67], with slight modifications. Eighty microliters of 5 × 10^4 CFU/ml of each pathogen were dispensed into a 96-well polypropylene microtiter plate. The wells were then treated with 20 µl of serially diluted cryptides for 3 h at 37 °C. Gentamicin was used for positive controls at 0.2 mg/ml while an equivalent volume of acidified water was used for negative controls. The plates were then topped up with a final concentration of 1 × Mueller Hinton Broth (MHB) and incubated for 18 h under the same incubation conditions. MIC was detected as the lowest concentration of each cryptide that prevents the optically detectable microbial growth at OD = 600 nm.

MRSA [2] = format: cell-based, Methicillin-resistant Staphylococcus aureus (ATCC, BAA-41); conditions: micro-broth dilution, 3 h peptide treatment then MHB 18 h, 37 °C, OD 600 nm
Description: as §1, §2

S. enterica [3] = format: cell-based, Salmonella enterica (ATCC, 14028); conditions: micro-broth dilution, 3 h peptide treatment then MHB 18 h, 37 °C, OD 600 nm
Description: as §1, §2

P. aeruginosa [4] = format: cell-based, Pseudomonas aeruginosa (ATCC, 10145); conditions: micro-broth dilution, 3 h peptide treatment then MHB 18 h, 37 °C, OD 600 nm
Description: as §1, §2

C. albicans [5] = format: cell-based, Candida albicans (TIMM, 1768); conditions: micro-broth dilution, 3 h peptide treatment then MHB 18 h, 37 °C, OD 600 nm
Description: as §1, §2

Caco-2 = format: cell-based, human; conditions: 24 h, serum-free medium, MTT, 37 °C, 5% CO2; mean ± SD
Procedure: (§3) The used mammalian cell lines in our study were colorectal adenocarcinoma (Caco2, ATCC-HTB-37), colorectal carcinoma (HCT 116, ATCC-CCL-247), lung carcinoma (A549, ATCC- CCL-185), cervical cancer cells (HeLa, ATCC-CCL-2), neuroblastoma (SH-SY5Y, ATCC- CRL-2266), rhabdomyosarcoma (RD, ATCC- CCL-136) and human embryonic kidney cells (HEK 293, ATCC- CRL-1573). All the cells were maintained into Dulbecco’s Modified Eagle’s Medium (DMEM) supplemented with 10% heat-inactivated fetal bovine serum, 2 mM L-Glutamine, 100 U/ml penicillin–streptomycin (Pen/Strep) at 37 °C in 5% CO2 humidified incubator.
(§4) First, the cytotoxic effect of 24 h serum deprivation on all the selected cell lines was evaluated by MTT assay, following standard protocols. Briefly, cells were seeded and maintained at 37 °C and 5% CO2 in 24-well plates until they reached 75–80% confluency (zero time). Following washing twice with 1X PBS, cells were incubated in a serum-free medium for 24 h, under the same incubation conditions. The cell viability percentages were calculated and compared to zero time as 100% viability to nullify any possible effects of serum deprivation. Thence, the cell viability percentage of each cell line in response to 24 h treatment with different concentrations of each cryptide in serum-free medium was calculated. […] All the measured cell viability percentages were normalised against the corresponding negative controls.

HeLa = format: cell-based, human; conditions: 24 h, serum-free medium, MTT, 37 °C, 5% CO2; mean ± SD
Procedure: as §3, §4

[6] = format: cell-based; conditions: 24 h, serum-free medium, MTT, 37 °C, 5% CO2; mean ± SD; read-out: IC50 (µM) A459
Procedure: as §3, §4

RD = format: cell-based; conditions: 24 h, serum-free medium, MTT, 37 °C, 5% CO2; mean ± SD
Procedure: as §3, §4

HEK-293 = test: MTT cytotoxicity on normal cells; format: cell-based, human; conditions: 25 µM (highest tested concentration), 24 h, serum-free medium
Procedure: as §3, §4

B. subtilis [7] = format: cell-based, Bacillus subtilis (ATCC, 11774); conditions: 20 µl of wells without growth on agar, 18 h, 37 °C
MRSA [8] = format: cell-based, Methicillin-resistant Staphylococcus aureus (ATCC, BAA-41); conditions: 20 µl of wells without growth on agar, 18 h, 37 °C
S. enterica [9] = format: cell-based, Salmonella enterica (ATCC, 14028); conditions: 20 µl of wells without growth on agar, 18 h, 37 °C
P. aeruginosa [10] = format: cell-based, Pseudomonas aeruginosa (ATCC, 10145); conditions: 20 µl of wells without growth on agar, 18 h, 37 °C
C. albicans [11] = format: cell-based, Candida albicans (TIMM, 1768); conditions: 20 µl of wells without growth on Sabouraud 4% Dextrose Agar, 18 h, 37 °C

Compound	MIC (µM) B. subtilis (B. subtilis [1])	MIC (µM) MRSA (MRSA [2])	MIC (µM) S. enterica (S. enterica [3])	MIC (µM) P. aeruginosa (P. aeruginosa [4])	MIC (µM) C. albicans (C. albicans [5])	IC50 (Caco-2)	IC50 (HeLa)	IC50 [6]	IC50 (RD)	Cell death of HEK-293 (HEK-293)	MBC (µM) B. subtilis (B. subtilis [7])	MBC (µM) MRSA (MRSA [8])	MBC (µM) S. enterica (S. enterica [9])	MBC (µM) P. aeruginosa (P. aeruginosa [10])	MFC (µM) C. albicans (C. albicans [11])
CC(C)C[C@H](NC(=O)[C@H](CCCNC(=N)N)NC(=O)[C@H](Cc1c[nH]c2ccccc12)NC(=O)[C@H](CCCNC(=N)N)NC(=O)[C@H](CC(C)C)NC(=O)[C@@H](N)Cc1ccccc1)C(=O)N[C@@H](CCCCN)C(=O)N[C@@H](Cc1ccccc1)C(=O)N[C@@H](CCCCN)C(=O)N[C@@H](CO)C(=O)N[C@@H](CCCCN)C(=O)N[C@H](C(=O)N[C@@H](Cc1c[nH]c2ccccc12)C(=O)N[C@@H](CS)C(=O)N1CCC[C@H]1C(=O)O)C(C)C [AD7] (H-FLRWRLKFKSKVWCP-OH)	0.39 µM (≈ 0.778 µg/mL)	3.12 µM (≈ 6.22 µg/mL)	0.78 µM (≈ 1.56 µg/mL)	6.25 µM (≈ 12.5 µg/mL)	1.56 µM (≈ 3.11 µg/mL)	11.2 ± 0.7 µM	101.5 ± 0.9 µM	8.5 ± 0.6 µM	97.8 ± 0.2 µM	less than 10%	0.39 µM (≈ 0.778 µg/mL)	3.12 µM (≈ 6.22 µg/mL)	0.78 µM (≈ 1.56 µg/mL)	25 µM (≈ 49.9 µg/mL)	6.25 µM (≈ 12.5 µg/mL)
CSCC[C@H](NC(=O)[C@H](CCCCN)NC(=O)CNC(=O)[C@H](CCCCN)NC(=O)[C@H](Cc1ccc(O)cc1)NC(=O)[C@H](CC(N)=O)NC(=O)[C@H](CC(C)C)NC(=O)[C@H](CCC(N)=O)NC(=O)[C@H](CC(C)C)NC(=O)[C@@H](N)CCCNC(=N)N)C(=O)N[C@@H](Cc1c[nH]c2ccccc12)C(=O)N[C@@H](CS)C(=O)N1CCC[C@H]1C(=O)NCC(=O)N[C@@H](Cc1c[nH]c2ccccc12)C(=O)O [AD11] (H-RLQLNYKGKMWCPGW-OH)	0.78 µM (≈ 1.47 µg/mL)	6.25 µM (≈ 11.8 µg/mL)	1.56 µM (≈ 2.93 µg/mL)	25 µM (≈ 47 µg/mL)	25 µM (≈ 47 µg/mL)	26.8 ± 0.4 µM	16.8 ± 0.6 µM	11.1 ± 0.7 µM	19.2 ± 0.9 µM	less than 10%	0.78 µM (≈ 1.47 µg/mL)	12.5 µM (≈ 23.5 µg/mL)	1.56 µM (≈ 2.93 µg/mL)	> 50 µM	25 µM (≈ 47 µg/mL)
RHCLRSKRPPNVCPH [AD4, cationic cryptide from P. vannamei precursor DN34505 (Pl-crustin 2), chemically synthesised]	1.56 µM	6.25 µM	3.12 µM	> 50 µM	25 µM	5.4 ± 0.7 µM	10.8 ± 0.3 µM	8.8 ± 1.1 µM	15 ± 0.8 µM	less than 10%	1.56 µM	12.5 µM	3.12 µM	> 50 µM	25 µM
